#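 All cell lines were grown in 96-well plates and treated with compound for 48 hours. The concentration for 50% growth inhibition is given as GI50. TGI: total growth inhibition.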
# Key:
# Assay in all cases: DTP human tumour cell line panel, 48 h
# [1] = test system: HS 578T breast
# [2] = test system: OVCAR-8 ovarian
# [3] = test system: SR leukemia
# [4] = test system: SW-620 colon
# [5] = test system: COLO 205 colon
# [6] = test system: HCC-2998 colon
# [7] = test system: PC-3 prostate
# [8] = test system: NCI-H23 lung
# [9] = test system: HOP-62 NSCLC
# [10] = test system: UACC-62 melanoma
Structure (SMILES),TGI [1] [µM],TGI [2] [µM],TGI [3] [µM],TGI [4] [µM],TGI [5] [µM],TGI [6] [µM],TGI [7] [µM],TGI [8] [µM],TGI [9] [µM],TGI [10] [µM],GI50 [3] [µM],GI50 [10] [µM]
COc1ccc(/C=c2\s/c(=C3/SC(=S)N(c4ccccc4)C3=O)n(-c3ccccc3)c2=O)cc1,74,> 100,31.8,> 100,> 100,> 100,> 100,> 100,69.9,> 100,–,–
CCC(O)(Cc1ccc(OC)cc1)c1ccc(OC)cc1 (configuration not stated),> 100,> 100,> 100,> 100,> 100,> 100,> 100,> 100,> 100,> 100,–,–
O=S(=O)(c1cc(Cl)ccc1Cl)n1ccnc1,> 100,> 100,70.9,> 100,34.1,42.4,> 100,52.8,> 100,> 100,–,–
CN(C)CCCNC(=O)c1cc(NC(=O)c2cc(NC(=O)CCCn3c4ccccc4c4ccccc43)cn2C)cn1C,49.7,> 66.2,4.82,42.8,7.88,18.7,> 56.3,39.3,30.9,23,2.24,7.28
CC1CCC2(NC1)OC1CC3C4CC=C5CC(OC6OC(CO)C(OC7OC(C)C(O)C(O)C7O)C(O)C6OC6OC(C)C(O)C(O)C6O)CCC5(C)C4CCC3(C)C1C2C (configuration not stated),15.6,8.31,27.8,22.3,35.4,4.72,4.28,27.1,> 100,7.71,–,–
N#CC1(O)CCCCCCCCCCC1,> 100,> 100,> 100,> 100,> 100,> 100,> 100,> 100,> 100,> 100,–,–
CSc1nc(NC(C)C)c2c(n1)Sc1nc3ccccc3n1N=C2,54.5,28.8,> 100,35.3,> 100,25.3,> 100,38.7,22.2,23.6,–,–
CN(C)CC1CCC/C(=C\c2ccc(OC(=O)c3ccc(Cl)cc3)cc2)C1=O (configuration not stated),10.3,3.23,> 100,2.71,4.81,> 29,18.4,3.5,12.6,13.4,–,–
